Measured values taken from publication PMC6467542 (Bioorganic & Medicinal Chemistry, 2019).
Values after ≈ are worked out from the molar mass of the structure shown.

How the values were obtained:
M. tb (strain H37Rv) [1] = assay: MIC90 against non-replicating M.tb (LORA); type: cell-based, Mycobacterium tuberculosis; settings: for MIC90: Mycobacterium tuberculosis, H37RV, read-out: MIC90 LORA
Method: In these assays, 1 is a potent inhibitor, with MICs of 0.08 and 0.12 µg/mL, respectively. Replacement of the naphthalene C-unit of 1 with various pyridyls produced analogues of considerably lower lipophilicity, with clogP values ranging from 6.89 down to 2.98.

M. tb (strain H37Rv) [2] = assay: MIC90 against replicating M.tb (MABA); type: cell-based, Mycobacterium tuberculosis; settings: aerobic (replicating) conditions, 90% inhibition of growth; for MIC90: Mycobacterium tuberculosis
in vitro [3] = settings: mouse, microsomes
in vitro [4] = settings: human, microsomes
hERG potassium channel = hERG potassium channel (Homo sapiens, UniProt Q12809); assay: Inhibition of hERG potassium current (patch clamp electrophysiology); settings: for hERG % inhibition at 3 µM: manual or (less accurate) QPatch assay; for hERG % inhibition at 1 µM: manual assay; for IC50: read-out: hERG IC50, manual patch clamp, 5-concentration dose-response
Sequence of hERG potassium channel (Q12809 whole entry): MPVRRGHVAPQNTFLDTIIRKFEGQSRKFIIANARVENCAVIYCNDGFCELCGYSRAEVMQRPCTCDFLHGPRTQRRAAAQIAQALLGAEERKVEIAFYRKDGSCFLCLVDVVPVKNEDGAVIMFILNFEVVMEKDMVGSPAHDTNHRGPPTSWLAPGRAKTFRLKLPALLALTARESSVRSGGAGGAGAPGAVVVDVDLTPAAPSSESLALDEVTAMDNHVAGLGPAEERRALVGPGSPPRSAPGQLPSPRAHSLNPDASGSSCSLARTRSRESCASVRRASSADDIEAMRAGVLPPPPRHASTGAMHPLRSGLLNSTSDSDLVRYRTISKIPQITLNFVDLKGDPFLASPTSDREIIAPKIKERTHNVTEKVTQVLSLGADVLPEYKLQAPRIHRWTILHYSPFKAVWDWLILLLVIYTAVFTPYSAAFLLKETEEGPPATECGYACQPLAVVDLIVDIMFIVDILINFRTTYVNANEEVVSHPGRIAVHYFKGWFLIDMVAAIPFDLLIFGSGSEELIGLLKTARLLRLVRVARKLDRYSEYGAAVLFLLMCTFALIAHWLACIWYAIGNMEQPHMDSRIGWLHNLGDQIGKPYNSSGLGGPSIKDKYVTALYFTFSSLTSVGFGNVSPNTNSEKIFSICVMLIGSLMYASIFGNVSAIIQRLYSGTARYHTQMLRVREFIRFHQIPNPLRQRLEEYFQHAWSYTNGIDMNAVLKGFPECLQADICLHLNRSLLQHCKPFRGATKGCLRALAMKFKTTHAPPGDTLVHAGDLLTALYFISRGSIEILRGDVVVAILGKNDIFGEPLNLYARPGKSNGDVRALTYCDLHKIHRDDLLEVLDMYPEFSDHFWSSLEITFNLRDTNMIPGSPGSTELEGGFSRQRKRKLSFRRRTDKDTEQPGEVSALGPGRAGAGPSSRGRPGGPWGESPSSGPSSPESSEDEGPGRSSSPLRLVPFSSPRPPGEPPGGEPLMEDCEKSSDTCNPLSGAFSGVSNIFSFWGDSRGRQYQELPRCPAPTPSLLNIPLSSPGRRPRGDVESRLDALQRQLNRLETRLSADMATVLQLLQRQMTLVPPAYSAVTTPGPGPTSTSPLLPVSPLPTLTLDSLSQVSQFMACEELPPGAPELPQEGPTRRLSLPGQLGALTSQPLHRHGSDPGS

Compound	MIC90 (M. tb (strain H37Rv) [1])	MIC90 (M. tb (strain H37Rv) [2])	also measured
COc1cccc(C(c2cc3cc(Br)ccc3nc2OC)C(O)(CCN(C)C)c2ccncc2C)c1F (stereo not shown) [Compound 50]	1.1 µg/mL (≈ 1.93 µM)	1 µg/mL (≈ 1.76 µM)	–
CCc1cc(C(O)(CCN(C)C)C(c2cc3cc(Br)ccc3nc2OC)c2cccc(OC)c2F)cc(CC)n1 (stereo not shown) [Compound 58]	0.21 µg/mL (≈ 0.344 µM)	0.03 µg/mL (≈ 0.0491 µM)	microsomal CLint (in vitro [3]): 20 µL/min/mg; microsomal CLint (in vitro [4]): 8 µL/min/mg; hERG % inhibition at 3 µM (hERG potassium channel): 63%/3
COc1cccc(C(c2cc3cc(C#N)ccc3nc2OC)C(O)(CCN(C)C)c2cncc(C)c2)c1F (stereo not shown) [Compound 31]	2.5 µg/mL (≈ 4.86 µM)	3.3 µg/mL (≈ 6.41 µM)	–
COc1cccc(C(c2cc3cc(Br)ccc3nc2OC)C(O)(CCN(C)C)c2cnc(C)c(C)c2)c1F (stereo not shown) [Compound 35]	0.29 µg/mL (≈ 0.498 µM)	0.31 µg/mL (≈ 0.532 µM)	–
CCc1cc(C(O)(CCN(C)C)C(c2cc3cc(C#N)ccc3nc2OC)c2cccc(OC)c2F)cc(CC)n1 (stereo not shown) [Compound 59]	0.28 µg/mL (≈ 0.503 µM)	0.19 µg/mL (≈ 0.341 µM)	microsomal CLint (in vitro [3]): 27 µL/min/mg; microsomal CLint (in vitro [4]): 10 µL/min/mg; hERG % inhibition at 1 µM (hERG potassium channel): 48%/1
COc1cc(C(O)(CCN(C)C)C(c2cc3cc(Br)ccc3nc2OC)c2cccc(OC)c2F)c(OC)cn1 (stereo not shown) [Compound 60]	0.12 µg/mL (≈ 0.195 µM)	0.11 µg/mL (≈ 0.179 µM)	microsomal CLint (in vitro [3]): 25 µL/min/mg; microsomal CLint (in vitro [4]): 7 µL/min/mg; IC50 (hERG potassium channel): 1700 nM
COc1ccc(C(O)(CCN(C)C)C(c2cc3cc(Br)ccc3nc2OC)c2cccc(OC)c2F)cn1 (stereo not shown) [Compound 45]	0.08 µg/mL (≈ 0.137 µM)	0.12 µg/mL (≈ 0.205 µM)	–
COc1cccc(C(c2cc3cc(Br)ccc3nc2OC)C(O)(CCN(C)C)c2cccc(C)n2)c1OC (stereo not shown) [Compound 2]	0.13 µg/mL (≈ 0.224 µM)	0.4 µg/mL (≈ 0.689 µM)	–
COc1nc2ccc(C#N)cc2cc1C(c1cccc(F)c1)C(O)(CCN(C)C)c1cncc(C)c1 (stereo not shown) [Compound 27]	0.98 µg/mL (≈ 2.02 µM)	1.2 µg/mL (≈ 2.48 µM)	microsomal CLint (in vitro [3]): 249 µL/min/mg; microsomal CLint (in vitro [4]): 122 µL/min/mg; hERG % inhibition at 1 µM (hERG potassium channel): 42%/1
COc1cnc(OC)c(C(O)(CCN(C)C)C(c2cc3cc(Br)ccc3nc2OC)c2cccc(OC)c2F)c1 (stereo not shown) [Compound 46]	0.04 µg/mL (≈ 0.0651 µM)	0.09 µg/mL (≈ 0.146 µM)	microsomal CLint (in vitro [3]): 53 µL/min/mg; microsomal CLint (in vitro [4]): 7 µL/min/mg; IC50 (hERG potassium channel): 2900 nM
COc1nc2ccc(Br)cc2cc1C(c1cccc(F)c1)C(O)(CCN(C)C)c1cncc(C)c1 (stereo not shown) [Compound 26]	0.08 µg/mL (≈ 0.149 µM)	0.28 µg/mL (≈ 0.52 µM)	–
COc1cccc(C(c2cc3cc(Br)ccc3nc2OC)C(O)(CCN(C)C)c2cc(C)nc(C)c2)c1F (stereo not shown) [Compound 54]	0.3 µg/mL (≈ 0.515 µM)	0.11 µg/mL (≈ 0.189 µM)	–
COc1cccc(C(c2cc3cc(C#N)ccc3nc2OC)C(O)(CCN(C)C)c2cccc(C)n2)c1OC (stereo not shown) [Compound 3]	1.9 µg/mL (≈ 3.61 µM)	4.1 µg/mL (≈ 7.79 µM)	–
COc1cc(C(O)(CCN(C)C)C(c2cc3cc(Br)ccc3nc2OC)c2cccc(OC)c2F)cnc1OC (stereo not shown) [Compound 47]	0.11 µg/mL (≈ 0.179 µM)	0.07 µg/mL (≈ 0.114 µM)	–
COc1cccc(C(c2cc3cc(Br)ccc3nc2OC)C(O)(CCN(C)C)c2ncccc2C)c1F (stereo not shown) [Compound 7]	0.4 µg/mL (≈ 0.704 µM)	0.19 µg/mL (≈ 0.334 µM)	–
COc1cccc(C(c2cc3cc(Br)ccc3nc2OC)C(O)(CCN(C)C)c2cc(C)cnc2C)c1F (stereo not shown) [Compound 32]	0.23 µg/mL (≈ 0.395 µM)	0.07 µg/mL (≈ 0.12 µM)	–
COc1cccc(C(c2cc3cc(C#N)ccc3nc2OC)C(O)(CCN(C)C)c2cc(C)cc(C)n2)c1F (stereo not shown) [Compound 12]	2.8 µg/mL (≈ 5.3 µM)	2.3 µg/mL (≈ 4.35 µM)	–
COc1cccc(C(c2cc3cc(Br)ccc3nc2OC)C(O)(CCN(C)C)c2ccc(C)nc2)c1OC (stereo not shown) [Compound 24]	0.51 µg/mL (≈ 0.879 µM)	0.6 µg/mL (≈ 1.03 µM)	–
COc1cccc(C(c2cc3cc(Br)ccc3nc2OC)C(O)(CCN(C)C)c2cnc(C)cc2C)c1F (stereo not shown) [Compound 37]	0.29 µg/mL (≈ 0.498 µM)	0.53 µg/mL (≈ 0.91 µM)	–
COc1ccnc(C(O)(CCN(C)C)C(c2cc3cc(Br)ccc3nc2OC)c2cccc(OC)c2F)c1 (stereo not shown) [Compound 17]	0.61 µg/mL (≈ 1.04 µM)	1.2 µg/mL (≈ 2.05 µM)	–
COc1cccc(C(c2cc3cc(Br)ccc3nc2OC)C(O)(CCN(C)C)c2cc(C)cc(C)n2)c1F (stereo not shown) [Compound 11]	0.11 µg/mL (≈ 0.189 µM)	0.14 µg/mL (≈ 0.24 µM)	–
COc1cccc(C(c2cc3cc(C#N)ccc3nc2OC)C(O)(CCN(C)C)c2ccc(C)nc2)c1F (stereo not shown) [Compound 23]	> 5 µg/mL	4.7 µg/mL (≈ 9.13 µM)	–
COc1ccc(C(O)(CCN(C)C)C(c2cc3cc(C#N)ccc3nc2OC)c2cccc(OC)c2OC)cn1 (stereo not shown) [Compound 44]	–	2.1 µg/mL (≈ 3.87 µM)	–

Compound	MIC90 (M. tb (strain H37Rv) [1])	MIC90 (M. tb (strain H37Rv) [2])	also measured
COc1cccc(C(c2cc3cc(Br)ccc3nc2OC)C(O)(CCN(C)C)c2cccnc2C)c1OC (stereo not shown) [Compound 20]	0.59 µg/mL (≈ 1.02 µM)	0.3 µg/mL (≈ 0.517 µM)	–
COc1cccc(C(c2cc3cc(Br)ccc3nc2OC)C(O)(CCN(C)C)c2cnc(C)c(C)c2)c1OC (stereo not shown) [Compound 34]	0.14 µg/mL (≈ 0.235 µM)	0.07 µg/mL (≈ 0.118 µM)	–
COc1ccnc(C(O)(CCN(C)C)C(c2cc3cc(C#N)ccc3nc2OC)c2cccc(OC)c2F)c1 (stereo not shown) [Compound 18]	2.2 µg/mL (≈ 4.15 µM)	2.3 µg/mL (≈ 4.33 µM)	–
COc1cccc(C(c2cc3cc(C#N)ccc3nc2OC)C(O)(CCN(C)C)c2cncc(C)c2)c1OC (stereo not shown) [Compound 29]	3.8 µg/mL (≈ 7.22 µM)	4.2 µg/mL (≈ 7.98 µM)	–
COc1nc2ccc(C#N)cc2cc1C(c1cccc2c1OCO2)C(O)(CCN(C)C)c1cccnc1OC (stereo not shown) [Compound 42]	–	2.1 µg/mL (≈ 3.99 µM)	–
COc1cccc(C(c2cc3cc(C#N)ccc3nc2OC)C(O)(CCN(C)C)c2cc(C)cc(C)n2)c1OC (stereo not shown) [Compound 10]	0.62 µg/mL (≈ 1.15 µM)	0.54 µg/mL (≈ 0.999 µM)	–
1-(7-bromo-3-methoxynaphthalen-2-yl)-1-(2,3-dimethoxyphenyl)-4-(dimethylamino)-2-(2,6-dimethylpyridin-4-yl)butan-2-ol [Compound 56]	–	–	MIC90 LORA (M. tb (strain H37Rv) [1]; M.tb H37Rv, non-replicating conditions, 90% inhibition of growth): 0.07 µg/mL; MIC90 MABA (M. tb (strain H37Rv) [2]): 0.04 µg/mL
COc1cccc(C(c2cc3cc(C#N)ccc3nc2OC)C(O)(CCN(C)C)c2cccc(C)n2)c1F (stereo not shown) [Compound 5]	1.8 µg/mL (≈ 3.5 µM)	1.1 µg/mL (≈ 2.14 µM)	–
COc1cccc(C(c2cc3cc(Br)ccc3nc2OC)C(O)(CCN(C)C)c2cncc(C)c2)c1OC (stereo not shown) [Compound 28]	0.57 µg/mL (≈ 0.982 µM)	0.3 µg/mL (≈ 0.517 µM)	–
COc1cccc(C(c2cc3cc(Br)ccc3nc2OC)C(O)(CCN(C)C)c2cncc(C)c2)c1F (stereo not shown) [Compound 30]	0.2 µg/mL (≈ 0.352 µM)	0.16 µg/mL (≈ 0.281 µM)	–
COc1cccc(C(c2cc3cc(C#N)ccc3nc2OC)C(O)(CCN(C)C)c2cnc(C)c(C)c2)c1F (stereo not shown) [Compound 36]	3.3 µg/mL (≈ 6.24 µM)	2.4 µg/mL (≈ 4.54 µM)	–
COc1cccc(C(c2cc3cc(Br)ccc3nc2OC)C(O)(CCN(C)C)c2cccc(C)n2)c1F (stereo not shown) [Compound 4]	2 µg/mL (≈ 3.52 µM)	0.29 µg/mL (≈ 0.51 µM)	microsomal CLint (in vitro [3]): 39 µL/min/mg; microsomal CLint (in vitro [4]): 10 µL/min/mg; hERG % inhibition at 3 µM (hERG potassium channel): 34%/3
COc1cccc(C(O)(CCN(C)C)C(c2cccc(C)c2)c2cc3cc(C#N)ccc3nc2OC)n1 (stereo not shown) [Compound 14]	0.29 µg/mL (≈ 0.584 µM)	0.6 µg/mL (≈ 1.21 µM)	–
COc1nc2ccc(Br)cc2cc1C(c1cccc(C)c1)C(O)(CCN(C)C)c1cc(C)nc(C)c1 (stereo not shown) [Compound 53]	0.49 µg/mL (≈ 0.893 µM)	0.11 µg/mL (≈ 0.201 µM)	–
COc1cccc(C(c2cc3cc(C#N)ccc3nc2OC)C(O)(CCN(C)C)c2ncccc2C)c1F (stereo not shown) [Compound 8]	3.5 µg/mL (≈ 6.8 µM)	3 µg/mL (≈ 5.83 µM)	–
COc1cccc(C(c2cc3cc(Br)ccc3nc2OC)C(O)(CCN(C)C)c2ncc(C)cc2C)c1F (stereo not shown) [Compound 13]	0.46 µg/mL (≈ 0.79 µM)	0.3 µg/mL (≈ 0.515 µM)	–
COc1ccc(C(O)(CCN(C)C)C(c2cc3cc(Br)ccc3nc2OC)c2cccc(OC)c2OC)cn1 (stereo not shown) [Compound 43]	0.54 µg/mL (≈ 0.905 µM)	0.28 µg/mL (≈ 0.469 µM)	–
COc1cccc(C(c2cc3cc(Br)ccc3nc2OC)C(O)(CCN(C)C)c2ccnc(C)c2)c1F (stereo not shown) [Compound 51]	0.58 µg/mL (≈ 1.02 µM)	0.47 µg/mL (≈ 0.827 µM)	–
COc1cccc(C(c2cc3cc(C#N)ccc3nc2OC)C(O)(CCN(C)C)c2ccnc(C)c2)c1F (stereo not shown) [Compound 52]	3.8 µg/mL (≈ 7.38 µM)	> 5 µg/mL	–
COc1cccc(C(c2cc3cc(C#N)ccc3nc2OC)C(O)(CCN(C)C)c2ccc(C)nc2)c1OC (stereo not shown) [Compound 25]	–	> 5 µg/mL	–
COc1cccc(C(c2cc3cc(Br)ccc3nc2OC)C(O)(CCN(C)C)c2cc(C)cc(C)n2)c1OC (stereo not shown) [Compound 9]	0.3 µg/mL (≈ 0.505 µM)	0.28 µg/mL (≈ 0.471 µM)	–
COc1cccc(C(O)(CCN(C)C)C(c2cc3cc(C#N)ccc3nc2OC)c2cccc3c2OCO3)n1 (stereo not shown) [Compound 16]	–	1.2 µg/mL (≈ 2.28 µM)	–
COc1cccc(C(c2cc3cc(Br)ccc3nc2OC)C(O)(CCN(C)C)c2cc(C)ccn2)c1F (stereo not shown) [Compound 6]	2.1 µg/mL (≈ 3.69 µM)	0.6 µg/mL (≈ 1.06 µM)	–
